# ChEMBL document CHEMBL1201862, “PubChem BioAssay data set” (2004)
# Activity calls are given as the source filed them.
# Experiments:
# [1] = target: T1, Scavenger receptor class B member 1 (Mus musculus, UniProt Q61009); assay: inhibitors of SR-BI mediated HDL lipid uptake, dose response, ldlA[mSR-BI] cells, fluorescence, cherry pick (AID 493194); format: functional, cell-based;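 note: cellular uptake of fluorescent DiI-labeled HDL measured as cell fluorescence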
# T1 sequence (Q61009 whole entry): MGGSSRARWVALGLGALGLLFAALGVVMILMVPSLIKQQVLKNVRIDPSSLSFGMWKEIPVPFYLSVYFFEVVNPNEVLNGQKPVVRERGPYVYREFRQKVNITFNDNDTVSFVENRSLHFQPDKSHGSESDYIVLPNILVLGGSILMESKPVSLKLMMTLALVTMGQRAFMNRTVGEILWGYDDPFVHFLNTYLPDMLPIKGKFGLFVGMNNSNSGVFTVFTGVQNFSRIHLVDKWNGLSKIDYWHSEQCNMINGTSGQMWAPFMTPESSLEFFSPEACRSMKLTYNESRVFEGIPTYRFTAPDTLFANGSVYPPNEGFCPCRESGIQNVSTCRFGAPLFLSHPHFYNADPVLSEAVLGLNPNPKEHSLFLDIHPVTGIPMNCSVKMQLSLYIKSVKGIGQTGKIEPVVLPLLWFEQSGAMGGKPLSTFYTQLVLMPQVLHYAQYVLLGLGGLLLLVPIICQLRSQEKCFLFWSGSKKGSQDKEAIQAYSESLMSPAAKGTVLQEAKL
# [2] = target: T2, Mucolipin-3 (Homo sapiens, UniProt Q8TDD5); assay: Dose response cell-based high-throughput screening assay for agonists of the transient receptor potential channel ML3 (TRPML3). [Related pubchem assays: 1526, 1424, 1448 ]; format: functional
# T2 sequence (Q8TDD5 whole entry): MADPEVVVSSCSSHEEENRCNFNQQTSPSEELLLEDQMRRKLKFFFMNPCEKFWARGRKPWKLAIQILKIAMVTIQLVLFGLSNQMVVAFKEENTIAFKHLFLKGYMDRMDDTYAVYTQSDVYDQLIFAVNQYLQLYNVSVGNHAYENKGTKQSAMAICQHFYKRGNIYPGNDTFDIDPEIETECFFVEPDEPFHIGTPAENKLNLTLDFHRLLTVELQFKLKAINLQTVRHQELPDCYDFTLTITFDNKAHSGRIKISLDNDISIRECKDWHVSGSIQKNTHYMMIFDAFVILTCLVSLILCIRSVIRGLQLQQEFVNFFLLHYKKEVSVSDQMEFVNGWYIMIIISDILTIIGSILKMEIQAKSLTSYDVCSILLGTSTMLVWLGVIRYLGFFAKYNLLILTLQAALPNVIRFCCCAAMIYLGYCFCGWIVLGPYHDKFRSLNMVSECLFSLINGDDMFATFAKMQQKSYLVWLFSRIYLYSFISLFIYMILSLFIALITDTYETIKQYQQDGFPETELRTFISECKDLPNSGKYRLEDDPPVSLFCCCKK
# [3] = target: Ion channel NompC (Danio rerio, UniProt Q7T1G6); assay: Fluorescence counterscreen assay for TRPML3 agonists: dose response cell-based high-throughput screening assay to identify agonists of the transient receptor potential channel N1 (TRPN1). [Related pubchem assays: 1526, 1424, 1448 ]; format: functional
# Sequence of Ion channel NompC (Q7T1G6 whole entry): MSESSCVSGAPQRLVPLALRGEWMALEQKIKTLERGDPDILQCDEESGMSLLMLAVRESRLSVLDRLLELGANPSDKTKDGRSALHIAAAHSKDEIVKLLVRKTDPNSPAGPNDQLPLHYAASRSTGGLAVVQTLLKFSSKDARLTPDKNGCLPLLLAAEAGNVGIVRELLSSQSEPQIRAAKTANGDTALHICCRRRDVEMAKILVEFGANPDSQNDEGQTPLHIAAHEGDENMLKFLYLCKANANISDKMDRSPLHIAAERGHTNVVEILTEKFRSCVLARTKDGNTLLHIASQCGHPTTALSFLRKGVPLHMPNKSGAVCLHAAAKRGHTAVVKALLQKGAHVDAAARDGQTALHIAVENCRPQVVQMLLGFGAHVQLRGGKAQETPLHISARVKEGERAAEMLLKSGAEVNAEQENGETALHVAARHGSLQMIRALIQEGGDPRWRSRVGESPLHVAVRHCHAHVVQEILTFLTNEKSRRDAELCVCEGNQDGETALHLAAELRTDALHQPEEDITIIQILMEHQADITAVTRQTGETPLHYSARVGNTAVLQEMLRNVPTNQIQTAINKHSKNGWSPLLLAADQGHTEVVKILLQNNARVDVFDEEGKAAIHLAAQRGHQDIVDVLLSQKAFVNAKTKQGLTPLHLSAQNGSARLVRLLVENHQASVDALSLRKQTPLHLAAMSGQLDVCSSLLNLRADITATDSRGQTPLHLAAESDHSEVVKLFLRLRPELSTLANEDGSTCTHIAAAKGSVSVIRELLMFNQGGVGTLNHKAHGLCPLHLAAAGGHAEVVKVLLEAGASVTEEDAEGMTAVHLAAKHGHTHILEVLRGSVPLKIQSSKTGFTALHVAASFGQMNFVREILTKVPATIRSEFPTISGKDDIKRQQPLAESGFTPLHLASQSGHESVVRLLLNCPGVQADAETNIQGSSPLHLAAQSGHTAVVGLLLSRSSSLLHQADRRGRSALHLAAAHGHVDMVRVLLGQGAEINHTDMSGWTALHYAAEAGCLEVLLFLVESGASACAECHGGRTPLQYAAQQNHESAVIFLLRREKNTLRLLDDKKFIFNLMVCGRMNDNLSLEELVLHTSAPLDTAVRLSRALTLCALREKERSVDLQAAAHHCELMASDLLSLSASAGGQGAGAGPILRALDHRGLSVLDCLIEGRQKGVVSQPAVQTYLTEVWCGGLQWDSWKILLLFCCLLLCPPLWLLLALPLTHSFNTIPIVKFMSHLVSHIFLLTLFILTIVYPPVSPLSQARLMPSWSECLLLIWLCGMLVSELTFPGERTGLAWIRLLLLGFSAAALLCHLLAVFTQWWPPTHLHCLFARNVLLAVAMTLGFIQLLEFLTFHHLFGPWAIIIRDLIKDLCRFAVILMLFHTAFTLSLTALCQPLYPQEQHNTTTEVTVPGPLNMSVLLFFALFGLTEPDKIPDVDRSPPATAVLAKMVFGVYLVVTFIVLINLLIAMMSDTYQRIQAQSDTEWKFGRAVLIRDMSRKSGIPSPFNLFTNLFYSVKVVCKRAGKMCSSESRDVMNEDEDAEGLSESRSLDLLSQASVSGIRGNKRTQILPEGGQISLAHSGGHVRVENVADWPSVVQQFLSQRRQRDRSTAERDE
# [4] = system: INS1; assay: beta cell apoptosis inhibitors, cytokine rescue, dose response, luminescence, retest (AID 449756); format: functional, cell-based; details: Rattus norvegicus;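 note: cell death triggered by IL-1 beta plus TNF-alpha plus IFN-gamma mixture; protective hits raise ATP signal compared with cytokine alone wells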
# [5] = A cytotoxicity screen of small molecule inhibitors of the PhoP region in Salmonella typhi identified in the primary screen. [Related pubchem assays: 1850, 1864, 1985 ]; format: functional
# [6] = target: T3, Lysosomal acid glucosylceramidase (Homo sapiens, UniProt P04062); assay: Dose response cell-based high throughput screening assay to identify enhancers of beta-glucosidase activity. [Related pubchem assays: 784 ]; format: functional
# T3 sequence (P04062 whole entry): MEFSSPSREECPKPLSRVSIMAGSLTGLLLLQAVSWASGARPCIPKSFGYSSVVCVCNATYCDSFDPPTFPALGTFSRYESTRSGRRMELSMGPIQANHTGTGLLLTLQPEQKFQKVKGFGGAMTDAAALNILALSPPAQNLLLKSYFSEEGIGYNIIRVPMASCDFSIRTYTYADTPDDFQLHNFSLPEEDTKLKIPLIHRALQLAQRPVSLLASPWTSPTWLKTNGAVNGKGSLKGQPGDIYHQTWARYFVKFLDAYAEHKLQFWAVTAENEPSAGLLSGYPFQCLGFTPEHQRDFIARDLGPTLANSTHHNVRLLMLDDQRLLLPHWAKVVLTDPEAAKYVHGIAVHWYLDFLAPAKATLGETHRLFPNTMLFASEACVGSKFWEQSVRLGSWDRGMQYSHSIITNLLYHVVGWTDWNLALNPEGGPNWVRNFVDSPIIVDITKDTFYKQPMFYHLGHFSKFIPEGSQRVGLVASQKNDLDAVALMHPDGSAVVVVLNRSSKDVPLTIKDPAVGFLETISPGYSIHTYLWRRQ
# [7] = system: Streptococcus sp. 'group A'; assay: growth inhibition of control SK(-) GAS strain, dose response, counter-screen for streptokinase expression inhibitor project, luminescence, kanamycin, BacTiterGlo, confirmation (AID 1900); format: functional, organism-based
# [8] = target: T4, Streptokinase A (Streptococcus pyogenes serotype M1, UniProt P10520); assay: S. pyogenes streptokinase expression inhibitors, potency, dose response, plasminogen activation absorbance, OD405 (AID 1914); format: functional, Streptococcus pyogenes M1 GAS;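 note: secreted streptokinase activity via plasminogen activation per viability signal from cell pellet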
# T4 sequence (P10520 whole entry): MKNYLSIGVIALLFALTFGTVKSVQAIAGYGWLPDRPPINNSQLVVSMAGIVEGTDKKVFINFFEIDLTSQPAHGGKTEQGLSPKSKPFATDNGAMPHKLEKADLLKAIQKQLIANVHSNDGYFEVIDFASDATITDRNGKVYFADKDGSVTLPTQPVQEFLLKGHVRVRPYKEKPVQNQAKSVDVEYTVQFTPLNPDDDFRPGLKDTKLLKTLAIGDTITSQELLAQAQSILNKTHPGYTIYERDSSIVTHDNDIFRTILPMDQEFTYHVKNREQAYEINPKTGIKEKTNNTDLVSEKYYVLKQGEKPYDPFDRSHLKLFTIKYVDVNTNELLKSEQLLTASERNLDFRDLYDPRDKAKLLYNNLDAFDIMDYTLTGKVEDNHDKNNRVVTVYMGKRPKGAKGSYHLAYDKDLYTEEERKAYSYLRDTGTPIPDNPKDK
# [9] = target: T5, Estrogen receptor beta (Homo sapiens, UniProt Q92731);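 note: recombinant ER-beta bound to coactivator SRC1 peptide in presence of estradiol agonist; inhibitors block coactivator peptide binding and lower the FRET signal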
# T5 sequence (Q92731 whole entry): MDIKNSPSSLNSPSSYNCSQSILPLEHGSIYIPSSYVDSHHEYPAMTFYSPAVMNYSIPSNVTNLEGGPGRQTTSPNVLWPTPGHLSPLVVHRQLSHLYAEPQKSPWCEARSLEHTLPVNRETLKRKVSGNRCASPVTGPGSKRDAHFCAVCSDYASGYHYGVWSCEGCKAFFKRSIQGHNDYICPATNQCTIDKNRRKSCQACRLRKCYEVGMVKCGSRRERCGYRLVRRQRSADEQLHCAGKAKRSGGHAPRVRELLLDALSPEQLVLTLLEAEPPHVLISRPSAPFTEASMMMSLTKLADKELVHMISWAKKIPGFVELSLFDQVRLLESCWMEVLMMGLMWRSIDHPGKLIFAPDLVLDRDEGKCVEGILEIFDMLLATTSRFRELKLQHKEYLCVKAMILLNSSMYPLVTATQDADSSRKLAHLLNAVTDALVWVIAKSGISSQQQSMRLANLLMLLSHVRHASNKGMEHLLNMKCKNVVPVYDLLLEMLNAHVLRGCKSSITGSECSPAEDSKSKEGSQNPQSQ
# [10] = target: T5, Estrogen receptor beta; assay: ERβ–SRC-3 coactivator interaction inhibitors, confirmation, orthogonal assay, biochemical, ELISA, streptavidin-HRP readout (AID 1060)
# [11] = target: Induced myeloid leukemia cell differentiation protein Mcl-1 (Homo sapiens, UniProt Q07820); format: functional
# Sequence of Induced myeloid leukemia cell differentiation protein Mcl-1 (Q07820 whole entry): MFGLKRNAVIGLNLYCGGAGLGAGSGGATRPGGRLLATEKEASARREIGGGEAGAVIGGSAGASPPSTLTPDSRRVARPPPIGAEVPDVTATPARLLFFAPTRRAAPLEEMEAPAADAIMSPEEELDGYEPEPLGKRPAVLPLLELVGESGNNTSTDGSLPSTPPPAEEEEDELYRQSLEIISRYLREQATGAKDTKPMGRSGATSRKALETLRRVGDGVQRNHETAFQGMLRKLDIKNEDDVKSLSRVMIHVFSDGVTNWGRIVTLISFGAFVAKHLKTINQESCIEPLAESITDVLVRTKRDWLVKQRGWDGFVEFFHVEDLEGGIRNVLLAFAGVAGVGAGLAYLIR
# [12] = system: Streptococcus; assay: Group A Streptococcus viability loss, dose response, counter-screen for streptokinase expression inhibitor project, luminescence, BacTiterGlo (AID 1915); format: functional, organism-based;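 note: potency for reduction of bacterial viability or growth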
# [13] = Counterscreen for IDE inhibitors: Luminescence-based cell-based high throughput dose response assay to identify compounds that are cytotoxic to HEK cells. [Related pubchem assays: 434962 (Primary screen (IDE inhibitors in singlicate)), 449730 (Counterscreen (Cytotoxicity in triplicate)), 435028 (Confirmation (IDE inhibitors in triplicate)) …; format: functional; details: HEK293
# [14] = target: T6, Insulin-degrading enzyme (Homo sapiens, UniProt P14735); assay: Dose Response: Fluorescence polarization-based cell-based high throughput dose response assay for inhibitors of insulin-degrading enzyme (IDE). [Related pubchem assays: 434962 (Primary screen (IDE inhibitors in singlicate)), 449730 (Counterscreen (Cytotoxicity in triplicate)), 435028 (Confirmation (IDE inhibitors in triplicate)), 434984 (Summary …; format: functional
# T6 sequence (P14735 whole entry): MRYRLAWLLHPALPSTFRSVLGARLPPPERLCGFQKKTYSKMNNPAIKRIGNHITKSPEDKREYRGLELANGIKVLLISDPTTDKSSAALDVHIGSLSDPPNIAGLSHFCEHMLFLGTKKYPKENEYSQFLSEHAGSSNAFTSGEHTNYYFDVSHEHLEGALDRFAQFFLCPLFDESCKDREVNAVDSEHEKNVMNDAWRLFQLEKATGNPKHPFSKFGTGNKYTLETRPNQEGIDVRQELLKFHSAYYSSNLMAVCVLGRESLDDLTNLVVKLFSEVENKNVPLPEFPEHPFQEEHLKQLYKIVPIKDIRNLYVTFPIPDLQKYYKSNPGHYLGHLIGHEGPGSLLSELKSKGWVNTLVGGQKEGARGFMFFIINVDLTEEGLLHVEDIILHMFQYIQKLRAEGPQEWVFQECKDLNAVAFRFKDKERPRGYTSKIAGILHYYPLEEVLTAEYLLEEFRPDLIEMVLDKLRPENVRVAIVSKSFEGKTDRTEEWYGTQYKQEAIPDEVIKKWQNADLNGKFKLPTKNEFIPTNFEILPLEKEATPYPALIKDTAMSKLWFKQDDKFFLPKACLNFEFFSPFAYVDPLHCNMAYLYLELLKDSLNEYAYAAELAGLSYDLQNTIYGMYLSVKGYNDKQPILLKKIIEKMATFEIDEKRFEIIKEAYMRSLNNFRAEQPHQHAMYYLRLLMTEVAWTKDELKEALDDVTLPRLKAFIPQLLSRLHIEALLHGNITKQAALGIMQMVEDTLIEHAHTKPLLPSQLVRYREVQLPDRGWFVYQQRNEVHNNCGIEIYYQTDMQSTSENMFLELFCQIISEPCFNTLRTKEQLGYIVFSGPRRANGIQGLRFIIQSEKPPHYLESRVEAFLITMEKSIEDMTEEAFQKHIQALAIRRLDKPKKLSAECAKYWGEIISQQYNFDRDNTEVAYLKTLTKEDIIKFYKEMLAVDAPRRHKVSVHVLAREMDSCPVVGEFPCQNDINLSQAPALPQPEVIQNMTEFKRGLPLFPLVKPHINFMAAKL
# [15] = target: Dual specificity protein phosphatase 3 (Homo sapiens, UniProt P51452); assay: VHR1 inhibitor Ki determination, SAR follow-up, biochemical, colorimetric (AID 2004)
# Sequence of Dual specificity protein phosphatase 3 (P51452 whole entry): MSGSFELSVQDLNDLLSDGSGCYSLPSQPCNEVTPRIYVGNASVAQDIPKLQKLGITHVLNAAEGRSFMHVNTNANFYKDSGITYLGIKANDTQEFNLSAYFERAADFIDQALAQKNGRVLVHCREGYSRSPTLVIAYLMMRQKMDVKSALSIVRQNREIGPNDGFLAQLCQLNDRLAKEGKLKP
# [16] = target: Large T antigen (Simian virus 40, UniProt P03070); format: functional, Betapolyomavirus macacae;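 note: Confirmatory-stage PubChem screen for compounds that inhibit SV40 T antigen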
# Sequence of Large T antigen (P03070 whole entry): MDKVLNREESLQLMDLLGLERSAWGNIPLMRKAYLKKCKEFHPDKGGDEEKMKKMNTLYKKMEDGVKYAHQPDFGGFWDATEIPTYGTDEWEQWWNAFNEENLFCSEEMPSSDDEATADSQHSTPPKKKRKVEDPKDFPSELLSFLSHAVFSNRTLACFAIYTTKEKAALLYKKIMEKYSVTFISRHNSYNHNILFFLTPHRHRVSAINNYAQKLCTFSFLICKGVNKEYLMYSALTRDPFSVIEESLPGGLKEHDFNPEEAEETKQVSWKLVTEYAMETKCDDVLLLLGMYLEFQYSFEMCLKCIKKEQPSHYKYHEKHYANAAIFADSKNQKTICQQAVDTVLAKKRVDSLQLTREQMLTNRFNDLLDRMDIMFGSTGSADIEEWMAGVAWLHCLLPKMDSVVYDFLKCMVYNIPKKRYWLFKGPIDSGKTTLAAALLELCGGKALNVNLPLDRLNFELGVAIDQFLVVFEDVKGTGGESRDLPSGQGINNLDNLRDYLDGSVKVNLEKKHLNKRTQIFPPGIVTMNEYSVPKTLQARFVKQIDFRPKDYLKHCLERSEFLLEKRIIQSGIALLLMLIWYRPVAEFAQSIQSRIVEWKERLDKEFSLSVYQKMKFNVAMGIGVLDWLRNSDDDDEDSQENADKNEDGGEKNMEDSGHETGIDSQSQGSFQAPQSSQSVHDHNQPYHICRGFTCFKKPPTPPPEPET
# [17] = target: Eukaryotic translation initiation factor 4E (Mus musculus, UniProt P63073); assay: eIF4E–eIF4G protein interaction inhibitors, dose response, biochemical, TR-FRET (AID 855); format: functional;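 note: potency for disrupting eIF4E binding to eIF4GI seen as loss of FRET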
# Sequence of Eukaryotic translation initiation factor 4E (P63073 whole entry): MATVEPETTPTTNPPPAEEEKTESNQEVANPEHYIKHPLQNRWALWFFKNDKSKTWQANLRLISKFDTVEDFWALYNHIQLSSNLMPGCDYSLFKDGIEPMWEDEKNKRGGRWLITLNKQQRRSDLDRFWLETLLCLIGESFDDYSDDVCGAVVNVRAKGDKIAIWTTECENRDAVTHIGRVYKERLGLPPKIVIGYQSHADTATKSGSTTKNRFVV
compound,measurement,setting,value
COc1ccc(OC)c(CCNC(=O)c2ccc3c(c2)N(Cc2ccc(F)cc2)CCS3)c1,AC50,[1],1.7 µM (active)
CC1=CC(C)(C)N(C(=O)CSc2nnc(-c3ccc(C)cc3)o2)c2ccc(C)cc21,EC50,[2],7.81 µM (active)
same,EC50,[3],> 29.9 µM (not active)
same,AC50,[4],14.8 µM (active)
O=S(=O)(c1ccc2ccccc2c1)N1CCCCCC1,EC50,[2],1.71 µM (active)
same,EC50,[3],> 29.9 µM (not active)
COc1ccc(C(=O)C2CCN(CC(=O)Nc3cc(C)cc(C)c3)CC2)cc1,EC50,[5],> 50 µM (active)
CCOc1ccccc1Nc1nc(-c2sc(NC(=O)c3cccc(Cl)c3)nc2C)cs1,AC50,[1],5.75 µM (active)
CCN1CCN(C(c2ccc(OC)c(OC)c2)c2nnnn2C(C)(C)C)CC1 (stereo unspecified),EC50,[6],> 50 µM (not active)
CCCOc1ccc(S(=O)(=O)n2cc(F)c(=O)[nH]c2=O)cc1,EC50,[5],> 50 µM (active)
O=C1CC(Cc2ccccc2)C(=O)N1c1ccc(Cl)cn1 (stereo unspecified),EC50,[6],> 10 µM (not active)
COC(=O)c1c(NC(=O)Cc2cccs2)sc2c1CCCC2,EC50,[7],20.6 µM (active)
same,EC50,[8],17.7 µM (active)
same,IC50,[9],4.51 µM (active)
same,IC50,[10],103 µM (not active)
same,IC50,[11],3.35 µM (active)
same,EC50,[12],> 150 µM (not active)
COc1ccc2[nH]c3c(NCc4ccco4)ncnc3c2c1,IC50,[13],19.3 µM (not active)
same,IC50,[14],21.2 µM (not active)
CCOc1cc(/C=C2/N=C(c3ccc(NC(C)=O)cc3)OC2=O)ccc1OCc1ccccc1,Ki,[15],22.9 µM (inactive)
Oc1c(Br)cc(Br)cc1CNc1ccccn1,EC50,[5],> 50 µM (active)
CCc1cc2cc3c(cc2nc1SCC(=O)OC(C)C)OCO3,AC50,[1],0.366 µM (active)
O=c1/c(=C\c2cc([N+](=O)[O-])cc([N+](=O)[O-])c2O)sc2nc3ccccc3n12,IC50,[13],> 55.7 µM (not active)
same,IC50,[16],52.8 µM (active)
same,IC50,[14],> 55.9 µM (not active)
same,IC50,[11],1.54 µM (active)
same,IC50,[17],50 µM (inactive)
COc1cc2c(C(=O)NCCCN3CCN(c4cccc(Cl)c4)CC3)cn(C)c(=O)c2cc1OC,EC50,[6],> 50 µM (not active)
CCN1C(=O)/C(=C/c2ccoc2)C(=O)NC1=S,Ki,[15],56.7 µM (inactive)
COc1ccc(C(=O)c2sc3nc(-c4ccccc4)ccc3c2N)cc1,IC50,[13],25.4 µM (not active)
same,IC50,[14],> 55.9 µM (not active)
